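96-well plates; 48 h exposure; 5 concentrations. Endpoints by linear interpolation between flanking doses. Not reached: highest tested concentration assigned. TGI: total growth inhibition.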
What was measured:
Assay in all cases: NCI anticancer screen, dose series, 48 h
U251 CNS = tested on: U251 CNS
NCI-H522 lung = tested on: NCI-H522 lung
T-47D breast = tested on: T-47D breast
K-562 leukemia = tested on: K-562 leukemia
SF-268 CNS = tested on: SF-268 CNS
HOP-62 NSCLC = tested on: HOP-62 NSCLC
MALME-3M melanoma = tested on: MALME-3M melanoma
SR leukemia = tested on: SR leukemia
CAKI-1 renal = tested on: CAKI-1 renal
OVCAR-5 ovarian = tested on: OVCAR-5 ovarian

Row | Structure (SMILES) | TGI (U251 CNS) [µM] | TGI (NCI-H522 lung) [µM] | TGI (T-47D breast) [µM] | TGI (K-562 leukemia) [µM] | TGI (SF-268 CNS) [µM] | TGI (HOP-62 NSCLC) [µM] | TGI (MALME-3M melanoma) [µM] | TGI (SR leukemia) [µM] | TGI (CAKI-1 renal) [µM] | TGI (OVCAR-5 ovarian) [µM]
1 | Cc1nc2ccc(F)cc2c(Cl)c1CCCl | > 100 | 93.6 | > 100 | 68.2 | > 100 | > 100 | 87.6 | 44.9 | – | –
2 | O=C(c1cccnc1)N1N=C(c2ccccc2)CC1(O)c1cc(F)c(Cl)cc1Cl (centres undefined) | 32.4 | > 100 | 62.4 | 80.4 | > 100 | 39.1 | 83 | 67 | > 100 | > 100
3 | CCC(CC)(CO)CNc1cc(Cl)nc(N)n1 | > 100 | > 100 | > 100 | > 100 | > 100 | > 100 | > 100 | > 100 | > 100 | > 100
4 | C=CC(=O)N1C/C(=C\c2ccc([N+](=O)[O-])cc2)C(=O)/C(=C/c2ccc([N+](=O)[O-])cc2)C1 | 0.978 | – | 1.79 | – | 0.338 | 0.375 | 0.643 | > 100 | 0.801 | 1.18
5 | Cc1c(Cl)cccc1N=NC(=O)NNc1cccc(Cl)c1C | 29.7 | 39.8 | 24.2 | 40.5 | 31.8 | 25.4 | 30.8 | 95 | – | 27.1
6 | Cn1c2ccccc2c2cc(N3CCCC3)c3c(c21)C(=O)N(c1ccccc1)C3=O | > 100 | > 100 | > 100 | > 100 | > 100 | > 100 | > 100 | > 100 | – | > 100
7 | O=C(O)c1c2c(cc3c1CC1(Cc4cc5c(cc4C1=O)CCC5)C3)CCC2 (centres undefined) | > 100 | > 100 | > 100 | > 100 | > 100 | > 100 | > 100 | > 100 | – | > 100
8 | Cc1cc2c(c(S(=O)(=O)c3ccccc3[N+](=O)[O-])c1)NCCC2 | > 100 | > 100 | 40.2 | – | > 100 | > 100 | > 100 | > 100 | – | > 100
9 | Cc1cc2n[n+]3[n-]cc(-c4ccccc4)n3c2cc1[N+](=O)[O-] | > 100 | > 100 | > 100 | > 100 | – | > 100 | – | > 100 | > 100 | > 100
10 | COc1ccc(NC(C(N)=O)c2cc3cc(Br)ccc3nc2Cl)cc1 (centres undefined) | – | > 100 | > 100 | > 100 | > 100 | > 100 | > 100 | 51.6 | > 100 | > 100
11 | Cc1cc2c(cc1C)C(=O)C1(C2)Cc2cc3c(cc2C1=O)CCC3 (centres undefined) | > 100 | > 100 | > 100 | > 100 | > 100 | – | > 100 | > 100 | > 100 | > 100
12 | C=C(C)[C@H]1C2=CC(C)=C(O2)[C@@H](O)[C@H](C(=C)C)CCC2=C[C@H]1OC2=O | > 100 | > 100 | > 100 | > 100 | > 100 | – | > 100 | > 100 | > 100 | > 100
13 | COC(=O)c1c2c(cc3c1CC1(Cc4cc5c(c(C(C)=O)c4C1)CCCC5)C3)CCCC2 (centres undefined) | > 100 | > 100 | > 100 | > 100 | – | > 100 | > 100 | 21 | – | > 100
14 | COC(=O)C1=C(C(=O)OC)C(N(C)C)C(C(=O)OC)=C(C(=O)OC)S1 | > 100 | – | > 100 | > 100 | > 100 | > 100 | – | > 100 | > 100 | > 100
15 | CC1(C)C2CCC1C(=O)[C@@]1(C=CC(=O)CC1)C2 (some centres undefined) | > 100 | > 100 | > 100 | > 100 | > 100 | > 100 | > 100 | > 100 | – | > 100
16 | COC(=O)C(Cc1c[nH]c2ccccc12)NP(=O)(O)OCC1OC(n2cc(Br)c(=O)[nH]c2=O)CC1O (centres undefined) | > 100 | > 100 | > 100 | > 100 | > 100 | > 100 | > 100 | > 100 | – | > 100
17 | O=[N+]([O-])/C=C(\CS(=O)(=O)c1ccccc1)c1ccc2c(c1)OCO2 | > 100 | > 100 | > 100 | > 100 | > 100 | > 100 | – | > 100 | 93.5 | 95.1

Reference: PubChem BioAssay (NCI)
